≈ marks a conversion by molar mass, not a printed value. Where a SMILES comes first, the peptide text is derived from it. [ ]: non-standard residue; d: D form. The star is where a group is joined. Palmitoyl = CCCCCCCCCCCCCCCC(=O)*
Experiments:
[1] = test system: L929 murine fibroblast cell lines; settings: 48 h, 0.05 wt %
Procedure: L929 murine fibroblast cell lines (ECACC General Cell Collection) were grown in Dulbecco’s modified Eagle’s medium (DMEM) supplemented with 10% fetal bovine serum (FBS), 20 mM HEPES, and 1% GlutaMAX. The cells were maintained at pH 7.4, 37 °C, and 5% CO2 in 25 cm^2 cell culture flasks.
For the cytotoxicity assay, approximately 6000 cells per well were seeded in 96-well plates. The medium was exchanged after 24 h by adding solutions of different concentrations of the lipopeptides ranging from 0.05 to 0.0001 wt %. After 48 h of treatment, cell viability was assessed using an MTT [3-(4, 5-dimethylthiazolyl-2)-2, 5-diphenyltetrazolium bromide] assay. Here, the culture medium was removed, followed by the addition of a solution of MTT in DMEM medium at a concentration of 0.5 mg/mL. The plate was incubated for 4 h at 37 °C. Next, to dissolve the formazan crystals, dimethyl sulfoxide was added. Thereafter, using an automatic plate reader, the absorbance was measured at 560 nm. Cell survival was expressed as a percentage of viable cells in the presence of peptides compared with control cells grown in their absence. The assay was repeated three times, and the results were averaged. Statistical significance was tested using multiple Student’s t-tests.
Here, the cytotoxicity of all the lipopeptides was investigated by MTT assays on L929 murine fibroblast cell lines. […] For all the lipopeptides, the cytotoxicity results were obtained after 48 h of cell culture.

E. coli K-12 = type: cell-based, Escherichia coli; settings: K-12, 24 h
Procedure: (§1) Antibacterial susceptibility testing was performed using a broth microdilution assay, against both Gram-negative and Gram-positive bacteria, as previously described by Kourmentza et al.[44] The target strains used were E. coli K-12, S. enterica NCTC 5188, and S. aureus NCDO 949. The test compounds were dissolved in water, filter-sterilized, and further diluted in Mueller-Hinton broth (MHB) which was used as the growth medium for the tests. 2-fold dilutions were performed, and 100 μL of each dilution was transferred to each well of 96-well plates. The final test concentration range of the compounds was 1.95–1000 μg/mL. Additionally, the 96-well plates contained wells with 200 μL of growth medium that served as sterility controls and wells filled with 100 μL of growth medium and 100 μL of inoculum that served as growth controls. The remaining wells were inoculated with 100 μL of a bacterial culture. The bacterial suspensions were prepared from overnight cultures in MHB. The bacterial density was adjusted to 0.5 McFarland (standard), and the suspensions were subsequently diluted 100 times using the growth medium. The 96-well plates were incubated at 37 °C for 24 h and the OD at 620 nm of the wells was assessed for growth. The MIC was defined as the lowest concentration of the antimicrobial agent tested that prevented any discernible growth after 24 h.
(§2) Since all the molecules are biocompatible at low concentrations, their antibacterial efficacy was examined in preliminary tests using a broth microdilution assay against both Gram-negative and Gram-positive bacteria. Here, E. coli K-12, S. enterica NCTC 5188 were cultured as Gram-negative bacteria and S. aureus NCDO 949 was used as a model Gram-positive bacterium. The lipopeptides were dissolved in water, filter-sterilized, and further diluted in Mueller-Hinton broth, which was used as the growth medium for the experiment to determine MIC values. […] E. coli was most susceptible to compounds P1 and P1D with MICs falling within the range of 15.63–31.25 μg/mL (Table 1). […] Overall, the P1 analogues have lower MIC values than those for the P2 analogues, especially for S. enterica.

S. aureus NCDO 949 = type: cell-based, Staphylococcus aureus; settings: NCDO 949, 24 h
Procedure: as §1, §2

S. enterica NCTC 5188 = assay: Antibacterial susceptibility, broth microdilution assay (MIC); type: cell-based, Salmonella enterica; settings: S. enterica NCTC 5188, broth microdilution in Mueller-Hinton broth, 37 °C, 24 h, OD 620 nm, test range 1.95–1000 μg/mL
Procedure: as §1, with “24 h. […]” for “24 h.”

[2] = Critical aggregation concentration (CAC) by ANS fluorescence probe assay; type: physicochemical; settings: 2 × 10^–3 wt % ANS solution, λex = 356 nm, emission 486 nm, 25 °C, aqueous solution
Procedure: Fluorescence experiments were carried out using a Varian Cary Eclipse spectrofluorometer in 4 mm inner-width quartz cuvettes. Excitation and emission bandwidths of 2.5 nm were used as the experimental settings. The temperature was set at 25 °C for all of the experiments. The CAC value for all of the lipopeptides was assessed by fluorescence experiments with 8-anilo-1-naphthalenesulfonic acid (ANS). ANS is a suitable fluorophore to determine the CAC value, due to changes in local hydrophobicity.[43] For this assay, various concentrations of samples were prepared in 2 × 10^–3 wt % ANS solution. Fluorescence spectra were recorded from 400 to 670 nm with λex = 356 nm.
To determine the CAC value of individual lipopeptides, the results were plotted as I/I0 versus log(c/wt %), where I stands for the maximum fluorescence intensity of ANS containing the various concentrations of samples and I0 stands for the intensity for the control, i.e., ANS solution without lipopeptide.
To determine CAC values of these lipopeptides, fluorescence probe assays using ANS were performed.[43] Emission spectra of the four lipopeptides were collected at different concentrations after excitation at 356 nm. At higher concentrations, an emission peak at 486 nm is visible. […] The lower CAC values for P2 and P2D are due to the higher hydrophobicity of tryptophan than tyrosine.

[3] = SAXS of micelles, core-shell sphere form factor and hard sphere structure factor fit; type: physicochemical
Procedure: SAXS experiments were performed on beamline B21 at Diamond (Didcot, UK). The sample solutions were loaded into the 96-well plate of an EMBL BioSAXS robot and then injected via an automated sample exchanger into a quartz capillary (1.8 mm internal diameter) with the X-ray beam. The quartz capillary was enclosed in a vacuum chamber to avoid parasitic scattering. After the sample was injected into the capillary and reached the X-ray beam, the flow was stopped during SAXS data acquisition. Beamline B21 operates with a fixed camera length (3.9 m) and fixed energy (12.4 keV). The images were captured by using a PILATUS 2 M detector. Data processing was performed by using the dedicated beamline software ScÅtter.
More quantitative information about these self-assembled nanostructures was obtained from SAXS, also performed for 1 wt % aqueous solutions of the four lipopeptides. Consistent with cryo-TEM, the form factors for P1, P1D, P2, and P2D can be fitted based on the core–shell sphere structure corresponding to a hydrophobic core and peptide corona. The fit parameters listed in SI Table S1 show outer radii in the range (2.47–2.90 ± 0.4) nm, consistent with cryo-TEM. The inner core radius is 1.45–1.56 nm, which is consistent with the length of an extended C16 lipid chain plus the first hydrophobic amino acid (Y or W). […] The shell thickness may be compared to the length of a tripeptide in an extended structure (such as PPII), 3 × 0.31 nm = 0.93 nm (residue translation value taken from ref ([55])) and is in good agreement with this value for P1, P1D, and P2D. […] The form factor parameters are the same within uncertainties for the other three lipopeptides. The association number can be estimated for P1 (similar values are expected for P1D and P2D since the micelle radius and molecular volume are similar) using the volume of a micelle Vmic = 4/3π(2.52 nm)^3 = 67.0 nm^3, while the molecular volume Vmol = 0.62 nm^3 was obtained from the hydrophobicity surface/molecular volume calculation in UCSF Chimera.[56] This leads to an estimated association number p = Vmic/Vmol = (108 ± 20). […]

[4] = 1 wt% sample at native pH = 4, core-shell sphere form factor

Row | SMILES | cell viability [1] | MIC (E. coli K-12) | lower range MIC value for E. coli as molar concentration (E. coli K-12) | MIC (S. aureus NCDO 949) | MIC (S. enterica NCTC 5188) | CAC (concentration at the breakpoint of I/I0 at 486 nm vs concentration) [2] | Ri, micelle inner core radius [3, 4] | Ro, micelle outer radius [3, 4] | RHS, hard sphere radius ([3]; 1 wt% sample at native pH = 4, hard sphere structure factor)
1 | CCCCCCCCCCCCCCCC(=O)N[C@@H](Cc1ccc(O)cc1)C(=O)N[C@H](CCCCN)C(=O)N[C@H](CCCCN)C(N)=O [P1D] (Palmitoyl-Tyr-[dK]-[dK]-NH2) | 44.1 ± 7.6% | 15.63 to 31.25 µg/mL | 22 to 23 µM | 31.25 µg/mL (≈ 46.3 µM) | – | – | – | – | –
2 | CCCCCCCCCCCCCCCC(=O)N[C@@H](Cc1ccc(O)cc1)C(=O)N[C@@H](CCCCN)C(=O)N[C@@H](CCCCN)C(N)=O [P1] (Palmitoyl-Tyr-Lys-Lys-NH2) | 53.1 ± 5.1% | 15.63 to 31.25 µg/mL | 22 to 23 µM | 31.25 to 62.5 µg/mL | – | – | – | – | –
3 | CCCCCCCCCCCCCCCC(=O)N[C@@H](Cc1c[nH]c2ccccc12)C(=O)N[C@H](CCCCN)C(=O)N[C@H](CCCCN)C(N)=O [P2D] (Palmitoyl-Trp-[dK]-[dK]-NH2) | 13.0 ± 1.1% | 31.25 to 62.5 µg/mL | – | 31.25 to 62.5 µg/mL | 62.5 µg/mL (≈ 89.5 µM) | 0.00257 ± 0.05 wt % | 15.1 Å | 26.3 Å | 79.3 Å
4 | CCCCCCCCCCCCCCCC(=O)N[C@@H](Cc1c[nH]c2ccccc12)C(=O)N[C@@H](CCCCN)C(=O)N[C@@H](CCCCN)C(N)=O [P2] (Palmitoyl-Trp-Lys-Lys-NH2) | 20.2 ± 2.8% | 15.63 to 62.5 µg/mL | 22 to 23 µM | 31.25 to 62.5 µg/mL | 62.5 to 250 µg/mL | – | – | – | –

From publication PMC10865344, “Self-Assembly and Antimicrobial Activity of Lipopeptides Containing Lysine-Rich Tripeptides” (Biomacromolecules, 2024)
